pEC50: −log10 of the molar value. In brackets after ≈: the same amount, converted by molar mass. Activity calls are given as the source filed them. The calls are words filed in the database; no cut-off is given here.
Experiments:
Hepatitis C virus [1] = test: Antiviral activity against Hepatitis C virus genotype 1b by replicon assay; format: functional, organism-based, Hepacivirus hominis
Hepatitis C virus [2] = test: Antiviral activity against Hepatitis C virus genotype 1a by replicon assay; format: functional, organism-based, Hepacivirus hominis; conditions: subtype 1a
Hepatitis C virus [3] = test: Antiviral activity against Hepatitis C virus genotype 1b by replicon assay in presence of human plasma; format: functional, organism-based, Hepacivirus hominis
[4] = Half life in dog at 2.5 mg/kg, po; conditions: in vivo
[5] = Half life in Sprague-Dawley rat at 5 mg/kg, po; format: ADME, organism-based; design: dose 5 mg/kg, route oral; conditions: in vivo
[6] = Half life in dog at 2.5 mg/kg, iv; format: ADME, organism-based, Canis lupus familiaris; design: dose 2.5 mg/kg, route intravenous; conditions: in vivo
[7] = Oral bioavailability in dog at 2.5 mg/kg; conditions: in vivo
[8] = Clearance in Sprague-Dawley rat at 5 mg/kg, iv; format: ADME, organism-based; design: dose 5 mg/kg, route intravenous; conditions: in vivo
[9] = Cmax in Sprague-Dawley rat at 5 mg/kg, po; format: ADME, organism-based; design: dose 5 mg/kg, route oral; conditions: in vivo
[10] = AUC in Sprague-Dawley rat at 5 mg/kg, po; format: ADME, organism-based; design: dose 5 mg/kg, route oral; conditions: plasma
[11] = Oral bioavailability in Sprague-Dawley rat at 5 mg/kg; format: ADME, organism-based; conditions: in vivo
[12] = Half life in Sprague-Dawley rat at 5 mg/kg, iv; format: ADME, organism-based; design: dose 5 mg/kg, route intravenous; conditions: in vivo
[13] = Clearance in dog at 2.5 mg/kg, iv; format: ADME, organism-based, Canis lupus familiaris; design: dose 2.5 mg/kg, route intravenous; conditions: in vivo
[14] = Solubility in aqueous buffer; format: physicochemical
[15] = Cmax in dog at 2.5 mg/kg, po; conditions: in vivo
[16] = AUC in dog at 2.5 mg/kg, po; conditions: plasma
Hepatitis C virus [17] = test: Antiviral activity against Hepatitis C virus genotype 1b harboring NS5A Q24R/K26R double mutant infected in chimpanzee assessed as reduction in viral load at 2.5 mg/kg, iv administered every 8 hrs measured after 32 hrs; format: functional, organism-based; design: dose 2.5 mg/kg; conditions: Hepacivirus hominis
Hepatitis C virus [18] = test: Antiviral activity against Hepatitis C virus genotype 1b infected in chimpanzee assessed as log reduction in viral load at 2.5 mg/kg, iv administered every 8 hrs measured after 32 hrs relative to control; format: functional, Hepacivirus hominis
[19] = Half life in iv dosed chimpanzee; format: ADME, organism-based, Pan troglodytes; conditions: in vivo
Hepatitis C virus [20] = test: Antiviral activity against Hepatitis C virus genotype 1b harboring NS5A L28M mutant infected in chimpanzee assessed as reduction in viral load at 2.5 mg/kg, iv administered every 8 hrs measured after 32 hrs; format: functional, organism-based; design: dose 2.5 mg/kg; conditions: Hepacivirus hominis
Hepatitis C virus [21] = test: Antiviral activity against Hepatitis C virus genotype 1b harboring NS5A K26R mutant infected in chimpanzee assessed as reduction in viral load at 2.5 mg/kg, iv administered every 8 hrs measured after 32 hrs; format: functional, organism-based; design: dose 2.5 mg/kg; conditions: Hepacivirus hominis
Hepatitis C virus [22] = test: Antiviral activity against Hepatitis C virus genotype 1b harboring NS5A Y93C/K26R double mutant infected in chimpanzee assessed as reduction in viral load at 2.5 mg/kg, iv administered every 8 hrs measured after 32 hrs; format: functional, organism-based; design: dose 2.5 mg/kg; conditions: Hepacivirus hominis

Structure (SMILES) | pEC50 (Hepatitis C virus [1]) | pEC50 (Hepatitis C virus [2]) | other results
CC(C)c1ccc2c(Nc3cc(C(=O)N[C@@H](C)c4ccccc4C(F)(F)F)ccc3Sc3ccc(N)cc3)ncnc2n1 | 7.70 | 6.43 | 
CC(C)c1ccc2c(Nc3cc(C(=O)N[C@@H](C)c4ccccc4)ccc3Sc3ccc(NS(C)(=O)=O)cc3)ncnc2n1 | 7.29 | 6.46 | 
CC(C)c1ccc2c(Nc3cc(C(=O)N[C@@H](C)c4ccccc4)ccc3Oc3ccc(N)cc3)ncnc2n1 | 6.10 | 5.64 | 
CC(C)c1ccc2c(Nc3cc(C(=O)N[C@@H](C)c4ccccc4Br)ccc3Sc3ccc(N)cc3)ncnc2n1 | 7.55 | 6.77 | 
CC(C)c1ccc2c(Nc3cc(C(=O)N[C@@H](C)c4ccc5ccccc5c4)ccc3Sc3ccc(N)cc3)ncnc2n1 | 7.52 | 6.47 | 
CC(C)c1ccc2c(Nc3cc(C(=O)N[C@@H]4CCc5ccccc54)ccc3Sc3ccc(N)cc3)ncnc2n1 | 7.89 | 7.80 | 
C[C@H](NC(=O)c1ccc(Sc2ccc(N)cc2)c(Nc2ncnc3nc(C(F)(F)F)ccc23)c1)c1ccccc1 | 6.60 | 6.70 | 
CC(C)c1ccc2c(Nc3cc(C(=O)N[C@@H](CO)c4ccccc4)ccc3Sc3ccc(N)cc3)ncnc2n1 | 6.50 | 5.34 | 
CC(C)c1ccc2c(Nc3cc(C(=O)NC(C)c4cccs4)ccc3Sc3ccc(N)cc3)ncnc2n1 (configuration not stated) | 6.80 | 6.42 | 
CC(=O)Nc1ccc(Sc2ccc(C(=O)N[C@@H](C)c3ccccc3)cc2Nc2ncnc3nc(C(C)C)ccc23)cc1 | 6.83 | 5.30 | 
CC(C)c1ccc2c(Nc3cc(C(=O)NC(C)c4ccc(C(F)(F)F)cc4)ccc3Sc3ccc(N)cc3)ncnc2n1 (configuration not stated) | 7.39 | 7.18 | 
Cc1ccccc1C(C)NC(=O)c1ccc(Sc2ccc(N)cc2)c(Nc2ncnc3nc(C(C)C)ccc23)c1 (configuration not stated) | 7.52 | 6.52 | 
CC(C)c1ccc2c(Nc3cc(C(=O)NCc4ccccc4)ccc3Sc3ccc(N)cc3)ncnc2n1 | 6.89 | 6.82 | 
CC(C)c1ccc2c(Nc3cc(C(=O)N[C@@H](C)c4ccccc4)ccc3Sc3ccc(N)cc3)ncnc2n1 | 8.15 | 7.35 | pEC50 (Hepatitis C virus [3]): 5.92; half-life [4]: 3 h; half-life [5]: 2.7 h; half-life [6]: 3.2 h; bioavailability [7]: 18.8%; clearance [8]: 5.5 mL/min/kg; Cmax [9]: 1480 ng/mL; AUC [10]: 6490 ng·h/mL; bioavailability [11]: 42.4%; half-life [12]: 1.6 h; clearance [13]: 4.33 mL/min/kg; solubility [14]: 5 µM (≈ 2.67 µg/mL); Cmax [15]: 490 ng/mL; AUC [16]: 2350 ng·h/mL
CC(C)c1ccc2c(Nc3cc(C(=O)N[C@@H](C)c4ccccc4)ccc3Sc3ccc(O)cc3)ncnc2n1 | 6.92 | 6.16 | 
CC(C)c1ccc2c(Nc3cc(C(=O)NC(C)c4ccccc4F)ccc3Sc3ccc(N)cc3)ncnc2n1 (configuration not stated) | 7.70 | 6.55 | 

Structure (SMILES) | pEC50 (Hepatitis C virus [1]) | pEC50 (Hepatitis C virus [2]) | other results
CC(C)c1ccc2c(Nc3cc(C(=O)N[C@@H](C)c4ccc(Br)cc4)ccc3Sc3ccc(N)cc3)ncnc2n1 | 8.40 | 7.80 | half-life [5]: 2 h; clearance [8]: 5.67 mL/min/kg; Cmax [9]: 330 ng/mL; AUC [10]: 3840 ng·h/mL; bioavailability [11]: 24.9%; half-life [12]: 1.9 h
CC(C)c1ccc2c(Nc3cc(C(=O)NC(C)c4cccc(F)c4)ccc3Sc3ccc(N)cc3)ncnc2n1 (configuration not stated) | 7.82 | 7.04 | 
CC(C)c1ccc2c(Nc3cc(C(=O)NC(C)(C)c4ccccc4)ccc3Sc3ccc(N)cc3)ncnc2n1 | 6.74 | 6.55 | 
Cc1ccc2c(Nc3cc(C(=O)N[C@@H](C)c4ccccc4)ccc3Sc3ccc(N)cc3)ncnc2n1 | 6.22 | 5.92 | 
COc1ccccc1C(C)NC(=O)c1ccc(Sc2ccc(N)cc2)c(Nc2ncnc3nc(C(C)C)ccc23)c1 (configuration not stated) | 7.40 | 6.21 | 
CC(C)c1ccc2c(Nc3cc(C(=O)NC4(c5ccccc5)CC4)ccc3Sc3ccc(N)cc3)ncnc2n1 | 6.15 | 5.97 | 
Cc1ccc([C@H](C)NC(=O)c2ccc(Sc3ccc(N)cc3)c(Nc3ncnc4nc(C(C)C)ccc34)c2)cc1 | 8.30 | 7.66 | half-life [5]: 2.6 h; clearance [8]: 18.3 mL/min/kg; Cmax [9]: 160 ng/mL; AUC [10]: 600 ng·h/mL; bioavailability [11]: 12.2%; half-life [12]: 0.7 h
CC[C@@H](NC(=O)c1ccc(Sc2ccc(N)cc2)c(Nc2ncnc3nc(C(C)C)ccc23)c1)c1ccccc1 | 6.90 | 6.58 | 
CC(C)c1ccc2c(Nc3cc(C(=O)N[C@H](CCO)c4ccccc4)ccc3Sc3ccc(N)cc3)ncnc2n1 | 6.46 | 5.49 | 
CC(C)c1ccc2c(Nc3cc(C(=O)N[C@@](C)(CO)c4ccccc4)ccc3Sc3ccc(N)cc3)ncnc2n1 | 8.70 | 6.73 | pEC50 (Hepatitis C virus [3]): 7.47; Activity (Hepatitis C virus [17]): inactive; FC (Hepatitis C virus [18]): 1.65; half-life [19]: 4.1 h; half-life [5]: 2.7 h; clearance [8]: 12.5 mL/min/kg; Activity (Hepatitis C virus [20]): inactive; Cmax [9]: 320 ng/mL; AUC [10]: 900 ng·h/mL; bioavailability [11]: 13.3%; half-life [12]: 1.1 h; Activity (Hepatitis C virus [21]): inactive; Activity (Hepatitis C virus [22]): inactive; solubility [14]: 19.7 µM (≈ 11.1 µg/mL)
CC(C)c1ccc2c(Nc3cc(C(=O)N[C@@H](C)c4ccc(F)cc4)ccc3Sc3ccc(N)cc3)ncnc2n1 | 8.70 | 8.00 | 
CC(C)c1ccc2c(Nc3cc(C(=O)NC(C)c4ccncc4)ccc3Sc3ccc(N)cc3)ncnc2n1 (configuration not stated) | 6.48 | 5.93 | 
Cc1cccc(C(C)NC(=O)c2ccc(Sc3ccc(N)cc3)c(Nc3ncnc4nc(C(C)C)ccc34)c2)c1 (configuration not stated) | 8.00 | 7.00 | 
CC(C)c1ccc2c(Nc3cc(C(=O)N[C@H](c4ccccc4)C(F)(F)F)ccc3Sc3ccc(N)cc3)ncnc2n1 | 8.70 | 7.89 | half-life [5]: 1.8 h; clearance [8]: 4 mL/min/kg; Cmax [9]: 930 ng/mL; AUC [10]: 3890 ng·h/mL; bioavailability [11]: 18.7%; half-life [12]: 2.9 h
CC(C)c1ccc2c(Nc3cc(C(=O)N[C@@H](C)C4CCCCC4)ccc3Sc3ccc(N)cc3)ncnc2n1 | 7.35 | 6.62 | half-life [5]: 0.8 h; clearance [8]: 21.5 mL/min/kg; Cmax [9]: 200 ng/mL; AUC [10]: 250 ng·h/mL; bioavailability [11]: 5%; half-life [12]: 0.5 h

The remaining compounds from weak to strong by pEC50 (Hepatitis C virus [1]), led by results:

pEC50 (Hepatitis C virus [1]) | pEC50 (Hepatitis C virus [2]) | Structure (SMILES) | other results
5.20 | 5.10 | C[C@H](NC(=O)c1ccc(Sc2ccc(N)cc2)c(Nc2ncnc3ncccc23)c1)c1ccccc1 | 
6.42 | 5.85 | CC(C)c1ccc2c(Nc3cc(C(=O)NC(C)c4cccnc4)ccc3Sc3ccc(N)cc3)ncnc2n1 (configuration not stated) | 
6.62 | 5.83 | CC(C)c1ccc2c(Nc3cc(C(=O)N[C@@H](CCO)c4ccccc4)ccc3Sc3ccc(N)cc3)ncnc2n1 | 
6.63 | 5.52 | CC(C)c1ccc2c(Nc3cc(C(=O)N[C@H](CO)c4ccccc4)ccc3Sc3ccc(N)cc3)ncnc2n1 | 
6.79 | 6.04 | CC(C)c1ccc2c(Nc3cc(C(=O)NC(C)c4ccccn4)ccc3Sc3ccc(N)cc3)ncnc2n1 (configuration not stated) | 
7.00 | 6.74 | CC(C)c1ccc2c(Nc3cc(C(=O)N[C@H](C)c4ccccc4)ccc3Sc3ccc(N)cc3)ncnc2n1 | 
7.22 | 5.92 | CC(C)c1ccc2c(Nc3cc(C(=O)N[C@](C)(CO)c4ccccc4)ccc3Sc3ccc(N)cc3)ncnc2n1 | 
7.27 | 6.35 | CC(C)c1ccc2c(Nc3cc(C(=O)N[C@H]4CCc5ccccc54)ccc3Sc3ccc(N)cc3)ncnc2n1 | 
7.28 | 7.05 | COc1ccc([C@H](C)NC(=O)c2ccc(Sc3ccc(N)cc3)c(Nc3ncnc4nc(C(C)C)ccc34)c2)cc1 | 
7.48 | 7.46 | CC[C@H](NC(=O)c1ccc(Sc2ccc(N)cc2)c(Nc2ncnc3nc(C(C)C)ccc23)c1)c1ccccc1 | 
7.68 | 6.68 | CC(C)c1ccc2c(Nc3cc(C(=O)N[C@@H](C)c4cccc(C(F)(F)F)c4)ccc3Sc3ccc(N)cc3)ncnc2n1 | 
8.05 | 7.48 | CC(C)c1ccc2c(Nc3cc(C(=O)NC(C)c4cccc(Br)c4)ccc3Sc3ccc(N)cc3)ncnc2n1 (configuration not stated) | 
8.40 | 7.38 | COC(=O)Nc1ccc(Sc2ccc(C(=O)N[C@@H](C)c3ccccc3)cc2Nc2ncnc3nc(C(C)C)ccc23)cc1 | clearance [8]: 12.8 mL/min/kg; bioavailability [11]: 0%; half-life [12]: 0.4 h
8.40 | 7.62 | COc1cccc([C@H](C)NC(=O)c2ccc(Sc3ccc(N)cc3)c(Nc3ncnc4nc(C(C)C)ccc34)c2)c1 | 
8.52 | 7.34 | C[C@H](NC(=O)c1ccc(Sc2ccc(N)cc2)c(Nc2ncnc3nc(C(C)(C)C)ccc23)c1)c1ccccc1 | 

— ChEMBL document CHEMBL2390885, “Discovery of pyrido[2,3-d]pyrimidine-based inhibitors of HCV NS5A” (Bioorg Med Chem Lett, 2013)
